Data: US7585861B2, “HIV inhibiting 1,2,4-triazines” (Janssen Pharmaceutica, N.V., priority 2003, dated 2009)

Tests used:
HIV [1] = assay: Test A: inhibition of the HIV-induced cytopathic effect in MT-4 cells (MTT); assay type: cell-based
Description: (§1) A rapid, sensitive and automated assay procedure was used for the in vitro evaluation of anti-HIV agents. An […] T4-cell line, MT-4, which was previously shown (Koyanagi et al., Int. J. Cancer, 36, 445-451, 1985) to be highly susceptible to and permissive for HIV infection, served as the target cell line. Inhibition of the HIV-induced cytopathic effect was used as the end point. The viability of both HIV- and mock-infected cells was assessed spectrophotometrically via the in situ reduction of 3-(4,5-dimethylthiazol-2-yl)-2,5-diphenyltetrazolium bromide (MTT). […] The percent protection achieved by the compound in HTV-infected cells was calculated by the following formula:
(§2) [formula] whereby (ODT)HIV is the optical density measured with a given concentration of the test compound in HIV-infected cells; (ODC)HIV is the optical density measured for the control unteated HIV-infected cells; (ODC)MOCK is the optical density measured for the control untreated mock-infected cells; all optical density values were determined at 540 nm. […] The ratio of CC50 to IC50 was defined as the selectivity index (SI).

[2] = Test A: cytotoxicity in mock-infected MT-4 cells (MTT); assay type: cell-based; conditions: human
Description: as §1, §2

HIV [3] = assay: Test B: HIV infection measured fluorometrically in MT-4 cells engineered with GFP (HIV-specific promotor); assay type: cell-based; conditions: Human immunodeficiency virus 1, MT4
Description: (§3) An […] T4-cell line, MT-4, which was previously shown (Koyanagi et al., Int. J. Cancer, 36, 445-451, 1985) to be highly susceptible to and permissive for HIV infection, served as the target cell line. In these cells, engineered with GFP (and an HIV-specific promotor), ongoing HIV-infection was measured fluorometrically. Cytotoxicity is measured in the same cells, but engineered with GFP under a constitutional promoter. The infection (or inhibition thereof) of HIV infected cells and the flourescence of mock-infected cells is assessed by the fluorescent GFP signal generated by the two above mentioned cell lines.

[4] = Test B: cytotoxicity in mock-infected MT-4 cells engineered with GFP under a constitutional promoter; assay type: cell-based; conditions: human
Description: as §3

[5] = Human immunodeficiency virus 1, MT4, read-out: pIC50 (converted)

SMILES | IC50 (HIV [1]; [5]) [M] | CC50 ([2]; mock-infected MT-4 cells) [nM] | IC50 (HIV [3]) [nM] | CC50 [4] [nM] | melting point [°C] | other results
Cc1cc(C#N)cc(C)c1Nc1cnnc(Nc2ccc(C#N)cc2)n1 [Compound 1] | 2e-09 | > 100000 | – | – | – | –
Cc1cc(C#N)cc(C)c1Oc1nc(Nc2ccc(C#N)cc2)nnc1Cl [Compound 3] | 5.01e-09 | > 100000 | – | – | – | –
COc1cc(OC)c(Nc2cnnc(Nc3ccc(C#N)cc3)n2)c(OC)c1 [Compound 36] | 5.01e-10 | > 100000 | – | – | – | –
Cc1cc(C)c(Nc2nc(Nc3ccc(C#N)cc3)nnc2Cl)c(C)c1 [Compound 44] | – | – | – | – | – | IC50 (HIV [1]; Human immunodeficiency virus 1, MT4, read-out: pIC50 (M) (converted)): 2.51e-09 M; CC50 [2]: > 25100 nM
N#CCCc1cc(Cl)c(Nc2nnc(Cl)c(Nc3ccc(C#N)cc3)n2)c(Cl)c1 [Compound 74] | – | – | 5.01 | > 25100 | 256 to 257 | –
N#CCCc1cc(Cl)c(Nc2nnc(Cl)c(Nc3ccc(C#N)cc3)n2)c(Br)c1 [Compound 75] | – | – | 3.16 | > 25100 | 252 to 254 | –
